US6521267B1, “Tyrosinase inhibitors from plants” (Fytokem Prtoducts, Inc., priority 1998, dated 2003)

Test system: tyrosinase (Sigma T-7755)
Test: tyrosinase assay: conversion of L-DOPA to DOPAquinone, monitored at 475 nm
Assay type: biochemical
Conditions: for Inhibition of tyrosinase enzyme step 2, 0.001% conc: ingredient at 0.001% conc; for Inhibition of tyrosinase enzyme step 2, 0.01% conc: ingredient at 0.01% conc; for Inhibition of tyrosinase enzyme step 2, 0.1% conc: ingredient at 0.1% conc; for Inhibition of tyrosinase enzyme step 2, 1% conc: ingredient at 1% conc; for INHIBITION OF ENZYME: comparison standard, 1% solution (solids present 1.0)
Method: The tyrosinase assay was based on methods previously published (Mason, H. S., (1948) J. Biol. Chem. 172, 83-86; Dawson, C. R. and Magee, R. J. (1955) Methods in Enzymology II 817-827 (Editors-in-chief S. P. Colowick and N. O. Caplan); Lerner, A. B. (1955) ibid 827-831; Bergmeyer, U. H. (1983) Methods of Enzymatic Analysis (Published by Verlag Chemie, Weinheim)). The protocol was as follows, scaled for the approximately twenty sample determinations:
(a) A buffer solution of pH 6.5 was prepared by dissolving 1.4 9 disodium monohydrogen phosphate (Na2HPO4) and 1.4 g monopotassium dihydrogen phosphate (KH2PO4) in pure water to make 200 mL.
(b) An enzyme solution of either 1.0 mg or 3.0 mg tyrosinase (Sigma T-7755) was prepared in 30 mL buffer and stored at 2° C. until use.
(c) A substrate solution was prepared by dissolving 0.10 g L-DOPA (L-3,4-dihydroxyphenyl-alanine, Sigma D-9661) in 100 ML buffer.
(d) The unfettered enzyme reaction rate was measured by mixing together 0.5 mL buffer solution and 0.5 mL substrate solution in twin acrylate mini-cuvettes (path 2.0 mm), and after observing the stability of the mixture, mixing in 0.25 mL enzyme solution to one cuvette. The formation of red DOPAquinone was monitored spectrophotometrically at 475 nm, at times 0, 1, 2 and 3 minutes.
(e) The effect of added substances on the enzyme reaction rate was measured by mixing together 0.5 mL buffer solution, 0.5 mL substrate solution and 0.25 mL test substance (at 1% strength in 50:50 butyleneglycol:water) in twin acrylate mini-cuvette. The reaction was tracked spectrophotometrically at 475 nm, reading at 0, 1, 2 and 3 minutes.
(f) The effect of test substances on reaction rate was expressed as inhibition (I) where I=100−[100 (trt absorbance change, 3 min)/100(control absorbance change, 3 min)].
Concentrations of substrate, enzyme or test substance can be varied as appropriate.
(§1) This assay duplicates rate-controlling steps in the human metabolic pathway to skin pigmentation. Pure hydroquinone in 1% solution was employed as a comparison standard.
as §1

| Inhibition of tyrosinase enzyme step 2, 0.001% conc (Table 4) [%] | Inhibition of tyrosinase enzyme step 2, 0.01% conc (Table 4) [%] | Inhibition of tyrosinase enzyme step 2, 0.1% conc (Table 4) [%] | Inhibition of tyrosinase enzyme step 2, 1% conc (Table 4) [%] | Inhibition of tyrosinase enzyme step 2, 0.001% conc (Table 6) [%] | Inhibition of tyrosinase enzyme step 2, 0.01% conc (Table 6) [%] | Inhibition of tyrosinase enzyme step 2, 0.1% conc (Table 6) [%] | Inhibition of tyrosinase enzyme step 2, 1% conc (Table 6) [%] | Enzymes reaction rate reduction @ 5 μg enzyme (5 μg enzyme, test substance at 1% strength) [%] | Enzymes reaction rate reduction @ 15 μg enzyme (15 μg enzyme, test substance at 1% strength) [%] | INHIBITION OF ENZYME (Table 3) | INHIBITION OF ENZYME (Table 5) | SMILES | effect on tyrosinase in standard assays (in words) (constituents of TYROSTAT compositions) |
| --- | --- | --- | --- | --- | --- | --- | --- | --- | --- | --- | --- | --- | --- |
| – | – | – | – | – | – | – | – | – | – | – | – | CC(O)CCO (stereo not drawn) [butanediol, 1,3-butanediol] | slightly inhibitory |
| 23 | 82 | 100 | 100 | 23 | 82 | 100 | 100 | – | – | – | – | O=C1O[C@H]([C@@H](O)CO)C(O)=C1O [Ascorbic acid, L-ascorbic acid] | – |
| <10 | <10 | 31 | 60 | <10 | <10 | 31 | 60 | 65 | 55 | 58-62% | 38-62% | Oc1ccc(O)cc1 [Hydroquinone, 1,4-dihydroxybenzene] | – |
